A short description of this test: inhibitors of Bluetongue virus cytopathic effect, confirmation, arbovirus, BSR cells (AID 1250). Particulars: BSR cells, Bluetongue virus CPE, ATP luminescence, 72 h; at 20 µM (top of the series). For orientation: Damage to the host cells serves as the signal in cytopathic effect assays.

Our source for the CPE inhibition values is PubChem BioAssay AID1250 (SRMLSC, 2008).

Activity calls are given as the source filed them.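 The calls were made as follows: active = inhibition of at least 30% at one or more tested concentrations; inactive = inhibition below 30% at every dose.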

Turning to `OC(CNC1CCCCC1)CNC1CCCCC1`, the CPE inhibition is 7.57% (inactive).

Turning to `COc1ccc(C(=O)/C=C/c2ccc(OC)c(Cn3nnc4ccccc43)c2)cc1`, the CPE inhibition was 15.8% (inactive).

With `Oc1c(Br)cc(C2N=C(c3ccccc3)NO2)cc1Br` (stereo unspecified), the CPE inhibition is 23.9% (inactive).

On to `O=C(Nc1ccc(OC(F)(F)F)cc1)c1[nH]ncc1[N+](=O)[O-]`, for which the CPE inhibition was 25.3% (inactive).

As to `Cc1ccc(-c2csc(NC(=O)c3cccc(S(=O)(=O)N4CCN(C)CC4)c3)n2)cc1`, the CPE inhibition was 5.05% (inactive).

In the case of `Oc1ccccc1CNCCCNCc1ccccc1O`, the CPE inhibition was 20.8% (inactive).

As for `Cn1cc([N+](=O)[O-])c(C(=O)NCc2cc3cc(Cl)ccc3[nH]2)n1`, the CPE inhibition is 9.85% (inactive).

For `O=C(Nc1sc2c(c1C(=O)O)CCCC2)c1cccs1`, the CPE inhibition was 25.3% (inactive).

With `COC(=O)c1c(SCc2ccc(C#N)cc2)nc(=O)[nH]c1C`, the CPE inhibition is 4.66% (inactive).

For the compound `O=C(O)c1ccccc1N/N=C\c1ccnc2ccccc12`, the CPE inhibition is 12.3% (inactive).

On to `O=c1/c(=C/c2ccc(O)c([N+](=O)[O-])c2)sc2nc3ccccc3n12`, for which the CPE inhibition is 12.4% (inactive).

Consider `O=c1[nH]c(=O)n(C(c2ccccc2)c2ccccc2)cc1Br`, for which the CPE inhibition is 18.7% (inactive).

As for `N#CC(C#N)=Cc1cc2ccccc2nc1N1CCCCC1`, the CPE inhibition is 12.6% (inactive).

For `CC1Cc2ccccc2N1C(=O)CSc1ccccc1` (stereo unspecified), the CPE inhibition was -1.84% (inactive).

On to `COc1ccc(NC(=O)C(=O)N/N=C/c2cc(C)n(-c3cccc(Cl)c3Cl)c2C)c(OC)c1`, for which the CPE inhibition is 20.7% (inactive).

With `C=C(C)CN(CC)C(=O)CSc1nc(O)cc(=O)n1C1CCCC1`, the CPE inhibition was -1.91% (inactive).

`COc1ccccc1/C=C/C=C1N=C(/C=C/c2ccc(Cl)cc2)OC/1=O`: the CPE inhibition was 25.2% (inactive).

Turning to `O=C(CN1CCCCCC1)N/N=C/c1cccs1`, the CPE inhibition is -0.49% (inactive).

As to `CC(C)CC1=NN2C(=N)/C(=C\c3coc4ccccc4c3=O)C(=O)N=C2S1`, the CPE inhibition is 13.5% (inactive).

As to `N=C1/C(=C/c2ccc(-c3cccc(C(=O)O)c3)o2)C(=O)N=C2SC=C(c3ccccc3)N12`, the CPE inhibition was 16.8% (inactive).

`Cc1cc(C)c(NC(=O)c2oc3ccccc3c2COc2ccccc2)c(C)c1`: the CPE inhibition was 5.41% (inactive).

In the case of `Clc1cccc(-c2cc3nc4c(c(NCc5ccco5)n3n2)CCCC4)c1`, the CPE inhibition is 10.7% (inactive).

For `Cc1nn(CC(O)Cn2c3c(c4ccccc42)CCN(C)C3=O)c(C)c1Br` (stereo unspecified), the CPE inhibition is 22.4% (inactive).

For `Cc1ccc(NC(=O)COc2ccc(Br)cc2CO)cc1`, the CPE inhibition is 10.5% (inactive).

As for `CCc1ccc(C2=CC(c3cc(Br)ccc3F)n3ncnc3N2)cc1` (stereo unspecified), the CPE inhibition was -5.9% (inactive).

Turning to `Cc1ccc(S(=O)(=O)CCSc2cccc(C(=O)Nc3ccccc3C(=O)O)c2)cc1`, the CPE inhibition is 28.2% (inactive).

Regarding `Fc1ccccc1N1CCN(Cc2nc(-c3ccc(Cl)cc3Cl)no2)CC1`, the CPE inhibition is 19.9% (inactive).

Take `O=C(Nc1ccn(Cc2ccccc2)n1)c1n[nH]c([N+](=O)[O-])c1Cl`: the CPE inhibition was 14% (inactive).

For the compound `O=c1c(-c2ccccc2)c[nH]n1-c1cccc([N+](=O)[O-])c1`, the CPE inhibition was 14.9% (inactive).

Turning to `CCSc1nnc(NC(=O)c2ccc(C)cc2)s1`, the CPE inhibition was 5.39% (inactive).

Regarding `CCOC(=O)C1CCCN(Cc2ccccc2Cl)C1` (stereo unspecified), the CPE inhibition is 6.31% (inactive).

With `COc1ccc2c(C)cc(Sc3nnnn3-c3ccccc3)nc2c1`, the CPE inhibition was 20.9% (inactive).

As for `Cn1cc(CN2CCN(c3ccccc3)CC2)c2ccccc21`, the CPE inhibition is 12% (inactive).

For the compound `COc1ccc(OC)c(NC(=O)c2cc(-c3ccc(C)cc3O)n[nH]2)c1`, the CPE inhibition was 9.4% (inactive).

For the compound `N#Cc1c(N2C(=O)Nc3ccccc3N2O)sc2c1CCCCCC2`, the CPE inhibition is 19.9% (inactive).

Regarding `CCOc1ccc(-n2c(C)cc(/C=C3/C(=N)N4C(=NC3=O)SN=C4S(C)(=O)=O)c2C)cc1`, the CPE inhibition is 25.5% (inactive).

`Cc1nn(Cc2ccccc2)c(Cl)c1C(=O)NC1CCCc2ccccc21` (stereo unspecified): the CPE inhibition was 16.5% (inactive).

As to `COc1ccc(Cl)cc1NC(=O)C1COc2ccccc2O1` (stereo unspecified), the CPE inhibition is 26.3% (inactive).

For `O=C(NNC(=O)c1cccs1)c1ccc([N+](=O)[O-])cc1`, the CPE inhibition is 4.62% (inactive).

In the case of `CCOc1ccc(-c2csc(NC(=O)CSCC(=O)O)n2)c2ccccc12`, the CPE inhibition is 17.7% (inactive).

In the case of `O=C(C1CC1)N1CCN=C1SCc1ccc(Cl)cc1`, the CPE inhibition was 0% (inactive).

On to `N#Cc1c(SCc2cccc(Cl)c2)sc(C(=O)c2ccccc2)c1N`, for which the CPE inhibition is 25.2% (inactive).

On to `CSC1=NSC2=NC(=O)/C(=C\c3cccs3)C(=N)N12`, for which the CPE inhibition is 16% (inactive).

Consider `CN1CCc2nc3sc(C#N)c(N)c3c(-c3cccs3)c2C1`, for which the CPE inhibition was 10.1% (inactive).

On to `Cc1cccc(C)c1Nc1nnc(SC/C(O)=C(\C#N)c2nc3ccccc3[nH]2)s1`, for which the CPE inhibition is 16.8% (inactive).

Regarding `Cc1ccc(O)c(-c2cc(C(=O)Nc3ccc(S(=O)(=O)Nc4nc(C)cc(C)n4)cc3)[nH]n2)c1`, the CPE inhibition was 21.8% (inactive).

For the compound `COCCn1c(SCc2nc3scc(-c4ccc(Cl)cc4)c3c(=O)[nH]2)nnc1-c1cccc(C)c1`, the CPE inhibition was 17.4% (inactive).

Regarding `N#Cc1c(NC(=O)C2CC(Cl)=CCC2C(=O)O)sc2c1CCCCC2` (stereo unspecified), the CPE inhibition was 17.1% (inactive).

In the case of `Cc1ccc(C2CC(=O)c3cnn(-c4nc(C)cc(C)n4)c3C2)cc1` (stereo unspecified), the CPE inhibition was 5.7% (inactive).

For the compound `O=c1oc(-c2ccccc2)nc2sc3c(c12)CCCC3`, the CPE inhibition is 24.9% (inactive).

For the compound `COC(=O)[C@H](Cc1ccccc1)NC(=O)O[C@@H]1C(=O)c2cc(OC)ccc2O[C@H]1c1ccc(OC)c(Br)c1`, the CPE inhibition was 13.7% (inactive).

As for `COCCN1C(=O)/C(=C/c2ccc(Oc3ccc([N+](=O)[O-])cn3)c(OC)c2)SC1=Nc1ccccc1`, the CPE inhibition was 25.6% (inactive).

With `O=[N+]([O-])c1ccc(-c2c(O)c3ccccc3c3nc4ccccc4nc23)cc1`, the CPE inhibition is 25.8% (inactive).

Take `O=C(CSCc1ccc(Cl)cc1)Nc1cccc(C(=O)Nc2ccccc2C(=O)O)c1`: the CPE inhibition is 23.5% (inactive).

Turning to `Cc1ccccc1N=C1SCC(=O)N1Cc1ccccc1`, the CPE inhibition is 3.79% (inactive).

Consider `C=CCNC(=O)c1onc(CSc2ccc(C(C)C)cc2)c1C(=O)O`, for which the CPE inhibition was 1.33% (inactive).

For `c1ccc(-c2csc3ncnc(NCCCN4CCOCC4)c23)cc1`, the CPE inhibition is 4.19% (inactive).

As for `C/C(=N\Nc1nc2ccccc2[nH]1)c1ccc2c(c1)OCO2`, the CPE inhibition is 8.76% (inactive).

For the compound `CCc1nn2cc(C(=O)c3ccccc3O)cnc2c1-c1ccc(F)cc1`, the CPE inhibition was 14.2% (inactive).

In the case of `O=C(O)c1csc(N/N=C/c2ccc(Br)cc2)n1`, the CPE inhibition is 8.09% (inactive).

Take `CCSc1nnc(NC(=O)CSc2nnc(Cc3cccn3C)n2-c2ccc(F)cc2)s1`: the CPE inhibition was 13.9% (inactive).
